The target in data set [1] is ATP-dependent translocase ABCB1 (Homo sapiens, UniProt P08183). Briefly: Inhibition of P-glycoprotein in Homo sapiens (human) MCF7/ADR cells assessed as doxorubicin-induced growth inhibition after 48 hr by SRB assay (Doxorubicin Rvb = 5.1 +/-1.2%). In kind it is cell-based. The note with it: nci/adr-res.
Data set [2] has as its system MCF7. Briefly: Cytotoxicity against Homo sapiens (human) MCF7 cells assessed as inhibition of cell proliferation after 48 hr by SRB assay. In kind it is cell-based. The note with it: mcf7, 48 h. (Sulforhodamine B stains cellular protein and so reports cell mass.)
Data set [3] in a line: Cytotoxicity against Homo sapiens (human) MCF7/ADR cells assessed as inhibition of cell proliferation after 48 hr by SRB assay. In kind it is cell-based, NCI/ADR-RES. The following applies: for IC10: human.
Where [4] appears, read: Homo sapiens, NCI/ADR-RES, 48 h.

The structures appear in SMILES notation. pIC50: −log10 of the molar value.

ATP-dependent translocase ABCB1, sequence (P08183 whole entry): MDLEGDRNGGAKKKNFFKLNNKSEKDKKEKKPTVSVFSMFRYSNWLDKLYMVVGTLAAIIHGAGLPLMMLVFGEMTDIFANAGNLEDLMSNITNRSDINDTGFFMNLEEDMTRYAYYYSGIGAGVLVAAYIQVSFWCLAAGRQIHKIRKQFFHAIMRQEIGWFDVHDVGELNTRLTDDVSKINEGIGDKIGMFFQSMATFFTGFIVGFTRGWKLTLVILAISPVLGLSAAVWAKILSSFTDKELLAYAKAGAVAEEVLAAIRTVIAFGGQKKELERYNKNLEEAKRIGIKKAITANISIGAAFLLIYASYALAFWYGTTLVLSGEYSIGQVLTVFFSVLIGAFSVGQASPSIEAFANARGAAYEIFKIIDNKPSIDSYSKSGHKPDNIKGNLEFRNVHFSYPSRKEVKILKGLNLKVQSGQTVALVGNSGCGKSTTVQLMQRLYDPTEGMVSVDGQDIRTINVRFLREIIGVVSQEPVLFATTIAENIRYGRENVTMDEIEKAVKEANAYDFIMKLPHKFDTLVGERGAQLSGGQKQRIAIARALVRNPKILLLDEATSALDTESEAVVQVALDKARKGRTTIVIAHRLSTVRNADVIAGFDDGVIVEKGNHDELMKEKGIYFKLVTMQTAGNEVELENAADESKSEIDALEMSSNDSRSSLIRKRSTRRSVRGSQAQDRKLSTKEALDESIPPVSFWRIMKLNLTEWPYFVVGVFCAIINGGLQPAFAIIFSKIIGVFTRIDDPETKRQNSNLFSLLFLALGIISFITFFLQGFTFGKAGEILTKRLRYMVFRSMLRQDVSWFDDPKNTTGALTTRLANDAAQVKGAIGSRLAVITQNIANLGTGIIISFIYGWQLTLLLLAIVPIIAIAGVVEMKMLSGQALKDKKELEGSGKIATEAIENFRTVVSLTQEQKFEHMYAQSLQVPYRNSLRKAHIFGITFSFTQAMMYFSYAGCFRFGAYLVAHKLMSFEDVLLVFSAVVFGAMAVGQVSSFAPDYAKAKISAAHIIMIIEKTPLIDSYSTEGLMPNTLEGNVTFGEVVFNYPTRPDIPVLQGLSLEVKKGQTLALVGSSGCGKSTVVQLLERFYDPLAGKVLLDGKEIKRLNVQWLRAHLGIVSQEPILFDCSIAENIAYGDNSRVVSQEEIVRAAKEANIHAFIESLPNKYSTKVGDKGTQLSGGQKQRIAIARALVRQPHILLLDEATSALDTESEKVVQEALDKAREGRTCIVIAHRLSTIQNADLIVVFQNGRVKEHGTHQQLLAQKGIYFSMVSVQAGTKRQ

As to `COC(=O)C(CNCCc1ccc(OC)c(OC)c1)Cc1ccc2c(c1)OCO2` (racemic), the “growth inhibition (GI)” value in data set [1] is recorded as 5.8%. For the same compound, the Activity result in data set [2] is “Non-toxic”. Besides, the pIC50 (commonly the IC50 on a negative log10 scale, so that one unit is a factor of ten) in data set [3] (setting [4]) was 3.73. Further, the IC10 (usually the concentration at which the effect reaches the 10% level) in data set [3] (nci/adr-res, 48 h) was determined as 10.5 µM.

Regarding `COC(=O)C(CNCCc1ccc(OC)c(OC)c1)C(O)c1ccc(OC)c(OC)c1` (single isomer, unassigned; form 2), the IC10 in data set [3] (nci/adr-res, 48 h) was found to be 30.1 µM. Also, the pIC50 in data set [3] (nci/adr-res) is 3.53.

As for `COC(=O)C(CNCCc1ccc(OC)c(OC)c1)C(O)c1ccc(OC)c(OC)c1` (single isomer, unassigned; form 1), the pIC50 in data set [3] (setting [4]) is 3.43. The IC10 in data set [3] (nci/adr-res, 48 h) was 38.2 µM.

On to `COC(=O)C(CNCCc1ccc(OC)c(OC)c1)C(O)c1ccccc1` (mixture of isomers), for which the “growth inhibition (GI)” value in data set [1] is 11.8%. The Activity result in data set [2] was “Non-toxic”. For the same compound, the negative logarithm of the IC50 (pIC50) in data set [3] (setting [4]) was 3.62. Besides, the IC10 in data set [3] (nci/adr-res, 48 h) stood at 14 µM.

For the compound `COC(=O)/C(=C\c1ccc2c(c1)OCO2)CNCCc1ccc(OC)c(OC)c1`, the “growth inhibition (GI)” value in data set [1] was 43.3%. Further, the Activity entry in data set [2] is on record as “Non-toxic”. Also, the pIC50 in data set [3] (setting [4]) was 3.61. Also, in data set [3] (nci/adr-res, 48 h), the concentration for an effect of 10% (IC10) amounted to 13.8 µM.

Turning to `COC(=O)/C(=C\c1ccc(OC)c(OC)c1)CNCCc1ccc(OC)c(OC)c1`, in data set [1], the “growth inhibition (GI)” value is on record as 87.7%. The Activity result in data set [2] is recorded as “Non-toxic”. Further, the pIC50 in data set [3] (setting [4]) was 3.95. The IC10 in data set [3] (nci/adr-res, 48 h) came out at 7.47 µM.

On to `COC(=O)C(CNCCc1ccc(OC)c(OC)c1)Cc1ccccc1` (racemic), for which the “growth inhibition (GI)” value in data set [1] turned out to be 3.2%. Besides, in data set [2], the Activity entry is listed as “Non-toxic”. The pIC50 in data set [3] (setting [4]) is 3.71. For the same compound, the IC10 in data set [3] (nci/adr-res, 48 h) was determined as 15.2 µM.

Take `COC(=O)C(CNCCc1ccc(OC)c(OC)c1)C(O)c1ccc2c(c1)OCO2` (mixture of isomers): the “growth inhibition (GI)” value in data set [1] was 10.4%. Besides, the Activity entry in data set [2] is on record as “Non-toxic”. For the same compound, in data set [3] (setting [4]), the pIC50 is 3.62. The IC10 in data set [3] (nci/adr-res, 48 h) was 20.7 µM.

`COC(=O)/C(=C\c1ccc([N+](=O)[O-])cc1)CNCCc1ccc(OC)c(OC)c1`: the pIC50 in data set [3] (setting [4]) was 6.05. Besides, in data set [3] (nci/adr-res, 48 h), the IC10 came to 0.05 µM.

With `COC(=O)C(CNCCc1ccc(OC)c(OC)c1)Cc1ccc(OC)c(OC)c1` (racemic), the “growth inhibition (GI)” value in data set [1] is listed as 6.9%. Also, the Activity result in data set [2] is “Non-toxic”. The pIC50 in data set [3] (setting [4]) was 4.54. For the same compound, the IC10 in data set [3] (nci/adr-res, 48 h) was found to be 2.39 µM.

Consider `COC(=O)C(CNCCc1ccc(OC)c(OC)c1)C(O)c1ccc(OC)c(OC)c1` (mixture of isomers), for which, in data set [1], the “growth inhibition (GI)” value was found to be 6.8%. In data set [2], the Activity result was “Non-toxic”.

Take `COC(=O)C(CNCCc1ccc(OC)c(OC)c1)C(O)c1ccc([N+](=O)[O-])cc1` (centres undefined): the “growth inhibition (GI)” value in data set [1] is on record as 12.9%. For the same compound, the Activity entry in data set [2] is given as “Non-toxic”. In data set [3] (setting [4]), the pIC50 was 4.07. For the same compound, in data set [3] (nci/adr-res, 48 h), the IC10 was determined as 15.7 µM.

As to `COC(=O)/C(=C\c1ccccc1)CNCCc1ccc(OC)c(OC)c1`, the “growth inhibition (GI)” value in data set [1] came out at 16.1%. Further, the Activity result in data set [2] is “Non-toxic”. Besides, the pIC50 in data set [3] (setting [4]) is 4.12. In data set [3] (nci/adr-res, 48 h), the IC10 turned out to be 12.9 µM.

The values are drawn from ChEMBL document CHEMBL3044602, “In vitro antiproliferative effect of -phenylethylamine derivatives and doxorubicin combinations on MCF/ADR cell lines” (Med Chem Res, 2013).
